# Laboratory results as given in publication PMC3615092, “Identification, Design and Bio-Evaluation of Novel Hsp90 Inhibitors by Ligand-Based Virtual Screening” (PLoS ONE, 2013).
# Read-outs that look alike come from different tables or passages of the source.
# What was measured:
# Hsp90 [1] = biological target: T1, Hsp90 (Homo sapiens, UniProt P07900); assay: Malachite green assay of Hsp90 ATPase activity; type: biochemical; details: for inhibition at 40 µM: read-out: Inhibition rate (% in 40 μM); for IC50: by malachite green assay
# T1 construct: The region encoding full-length Hsp90 was subcloned into pET28a; inferred from the pET28a vector and Ni-NTA purification; made in house; host or cells: E. coli
# Protocol: The region encoding full-length Hsp90 was subcloned into pET28a. Protein expression in E. coli cells were induced with 0.5 mM IPTG. Cells were harvested after 20h of growth at 16°C and then disrupted by sonication. The soluble lysate was clarified by centrifugation and applied to a Ni^2+-nitrilo-triacetic acid (NTA) agarose column in a buffer (50 mM Tris-Cl, 300 mM NaCl, 10 mM Imidazole, 10% [v/v] Glycerol, 10 mM PMSF, 10 mM DTT). Hsp90 Protein was eluted with a linear gradient of 20–1000 mM imidazole. Hsp90 was identified by SDS-PAGE, and the high concentrated fraction was dialyzed against ATPase buffer (20 mM Tris-Cl, pH 7.5; 6 mM MgCl2; 20 mM KCl) and then aliquoted, frozen in liquid nitrogen, stored at −80°C.
# The test compounds were diluted from mother plates (10 mM in 100% (v/v) DMSO) into daughter plates (200 μM in 2.0% (v/v) DMSO); 5 μL of test compound solution was added to each well (equivalent to a final concentration of 40 μM) of the 96-well assay plate. The first and last rows of the 96-well plate contained the appropriate concentration of DMSO were used as blank control. ATP was dissolved in the assay buffer to give a stock concentration of 2.5 mM and stored at room temperature. A 10 μL aliquot of ATP solution was added to each well to give a final assay concentration of 1 mM. Before the usage, Hsp90 protein was thawed on ice and suspended in chilled assay buffer to a stock concentration of 0.45 mg/mL, and the solution was kept on ice. The incubation was started by adding 10 μL of the stock Hsp90 to each well (except for the background wells which received 10 μL of assay buffer), giving a final assay volume of 25 μL. The plates were shaken for approximately 2 min and incubated for 3 h at 37°C.
# The assay procedures were based on the literatures [33]–[35]. […] The reagent is initially dark brown, but on standing for ∼2 h at room temperature changes to a golden yellow and is ready for use. The assay buffer was 100 mM Tris–HCl, 20 mM KCl, 6 mM MgCl2, pH 7.4.
# To stop the ATPase reactions, 80 μL of the malachite green reagent was added to each well.
# MCF-7 = assay: Anti-proliferation MTT assay; type: cell-based
# Protocol: (§1) Cell viabilities were measured by a colorimetric assay using 3-(4, 5-dimethylthiaz-ol-2-yl)-2,5-diphenyltetrazoliumbromide (MTT, Sigma, Ltd.) as described previously. Experiments were carried out in triplicate in a parallel manner for each concentration of target compounds and the results were presented as mean ± SE. Control cells were given only culture media. After incubation for 48 h, absorbance (A) was measured at 570 nm. Survival ratio (%) was calculated using the following equation: survival ratio (%) = (Atreatment/Acontrol) × 100%.
# SK-BR-3 = assay: Anti-proliferation MTT assay; type: cell-based
# Protocol: as §1
# HepG2 = assay: Anti-proliferation MTT assay; type: cell-based
# Protocol: as §1
# HCT116 = assay: Anti-proliferation MTT assay; type: cell-based
# Protocol: as §1
# MDA-MB-231 = assay: Anti-proliferation MTT assay; type: cell-based
# Protocol: as §1
# A549 = assay: Anti-proliferation MTT assay; type: cell-based
# Protocol: as §1
# Hsp90 [2] = biological target: T1, Hsp90; assay: ATP hydrolysis inhibition, ADP Hunter Plus (ADP fluorescence) assay; type: biochemical; details: by ADP fluorescence assay
# Protocol: The first and last rows of the 96-well plate contained the appropriate concentration of DMSO were used as blank control. ATP was dissolved in the assay buffer to give a stock concentration of 2.5 mM and stored at room temperature. A 10 μL aliquot of ATP solution was added to each well to give a final assay concentration of 1 mM. Before the usage, Hsp90 protein was thawed on ice and suspended in chilled assay buffer to a stock concentration of 0.45 mg/mL, and the solution was kept on ice. […] The plates were shaken for approximately 2 min and incubated for 3 h at 37°C. The Discover RX ADP Hunter^TM Plus Assay kit (Discoverx, Fremont, CA) was used following the manufacturer's instructions. ATPase reactions were carried out after 3 h at 37°C temperature in presence of different concentrations of compounds. ADP generation was measured using Varioskan multimode microplate spectrophotometer (540 nm excitation and 620 nm emission). […] The background reaction rate was measured in a reaction lacking enzyme or substrate and subtracted from the experimental rates.
# Hsp70 = biological target: T2, Hsp70 (Homo sapiens, UniProt P0DMV8); assay: Hsp70 ATPase activity assay (ADP Hunter Plus); type: biochemical; details: for IC50: ADP Hunter Plus assay; for selectivity HSP90 over HSP70: ratio of IC50 HSP70 / HSP90, ADP fluorescence assay
# T2 construct: purchased Enzo Life science ALX-201-214-C025
# T2 sequence (P0DMV8 whole entry): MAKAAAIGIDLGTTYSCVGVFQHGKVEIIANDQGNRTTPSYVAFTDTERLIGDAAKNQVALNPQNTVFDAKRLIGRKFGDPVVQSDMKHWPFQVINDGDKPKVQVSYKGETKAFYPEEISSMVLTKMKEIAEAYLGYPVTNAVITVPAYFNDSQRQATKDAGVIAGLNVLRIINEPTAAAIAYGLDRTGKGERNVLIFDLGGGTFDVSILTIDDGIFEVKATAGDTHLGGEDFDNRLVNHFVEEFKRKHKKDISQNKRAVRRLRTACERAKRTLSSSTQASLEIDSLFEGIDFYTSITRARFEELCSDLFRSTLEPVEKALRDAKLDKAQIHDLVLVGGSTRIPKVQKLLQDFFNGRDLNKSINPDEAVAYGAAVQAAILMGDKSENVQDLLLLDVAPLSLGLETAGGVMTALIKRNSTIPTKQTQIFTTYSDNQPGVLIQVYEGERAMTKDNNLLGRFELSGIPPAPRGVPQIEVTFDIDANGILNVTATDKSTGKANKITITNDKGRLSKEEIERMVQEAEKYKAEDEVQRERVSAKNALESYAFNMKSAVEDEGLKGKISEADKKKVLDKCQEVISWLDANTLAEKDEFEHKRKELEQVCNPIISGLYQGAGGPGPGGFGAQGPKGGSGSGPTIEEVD
# Description: The following materials were used for the biological evaluation: The PET-28a HSP90 expression vector was constructed. The Ni^2+-nitrilo-triacetic acid (NTA) agarose was purchased from General Electric (USA). […] Isopropyl-1-thio-d-galactopyranoside (IPTG) was purchased from Sigma (St. Lousi. MO). Antibodies of β-Actin, Hsp70, Hsp90, c-Raf, Akt, Src, Phospho-Src, ERK and Her-2 were purchased from Cell Signaling Technology (Danvers, MA). Anti-p-Akt(S473) was purchased from Signalway Antibody (Baltimore, MD). HIF-1α antibody was purchased from R&D systems. The stock solution of Hsp90 was prepared in a 20 mM Tris-Cl buffer with a pH 7.4, and concentration was fixed at 5.0 μM. […] The screened out compounds were purchased from SPECS and dissolved in DMSO (Sigma, St. Louis, MO) to make a final concentration of 10^−2 mol/L and were stored at −20°C. […] The water used in the experiments was thrice-distilled and all other materials were of analytical reagent grade.
# Hsp70 ATPase activity was measured using Discover RX ADP Hunter^TM Plus Assay kit assay as descripted in the manufacturer's instructions. Breifly, Hsp70 (3 μM) was incubated with 1 mM ATP in 100 mM Tris pH 7.4 at 37°C for 3 h in the presence or absence of various concentrations of test compounds. ADP generation was measured using Varioskan multimode microplate spectrophotometer (540 nm excitation and 620 nm emission). Fluorescence intensity values measured for Hsp70 without any testing compound was assumed as 100% of enzyme activity. The background reaction rate was measured in a reaction lacking enzyme or substrate and subtracted from the experimental rates.
# [3] = 40 μM, colorimetric assay for inorganic phosphate
# [4] = colorimetric assay for inorganic phosphate, 40 μM
smiles,measurement,setting,value
"CO[C@H]1/C=C\C=C(/C)C(=O)NC2=CC(=O)C(NCCN(C)C)=C(C[C@@H](C)C[C@H](OC)[C@H](O)[C@@H](C)/C=C(\C)[C@@H]1OC(N)=O)C2=O [Compound 17-DMAG, 17-Dimethylamino-ethylamino-17-demethoxygeldanamycin]",Inhibition rate (% in 40 μM),Hsp90 [1]; [3],90%
same,IC50,MCF-7; 48 h,0.037 µM
same,IC50,SK-BR-3; 48 h,1.21 µM
same,IC50,HepG2; 48 h,0.49 µM
same,IC50,HCT116; 48 h,0.26 µM
same,IC50,MDA-MB-231; 48 h,0.048 µM
same,IC50,A549; 48 h,0.057 µM
CCOC(=O)C1=C(Nc2ccc(OC)cc2)S/C(=C\c2ccc[nH]2)C1=O [Compound S12],inhibition at 40 µM,Hsp90 [1]; [3],12.6%
COc1ccc(-c2csc3ncn(CC(=O)NC4CCCCC4)c(=O)c23)cc1OC [Compound S11],inhibition at 40 µM,Hsp90 [1]; [3],42.8%
same,Hsp90 inhibition activity (in words),Hsp90 [1]; [4],moderate
COc1ccc(CNC(=O)CSc2nc3ccc(N)cc3s2)cc1 [Compound S3],inhibition at 40 µM,Hsp90 [1]; [3],-11.6%
COc1ccc(-c2csc3ncn(CC(=O)Nc4ccc(C)cc4C)c(=O)c23)cc1OC [Compound S9],inhibition at 40 µM,Hsp90 [1]; [3],-47.8%
O=C(NNC1CC(=O)N(c2ccc(Br)cc2)C1=O)c1cccnc1 (stereo not drawn) [Compound S7],inhibition at 40 µM,Hsp90 [1]; [3],-35.1%
COCCCN1C(=O)C(O)=C(C(=O)c2ccc(OC(C)C)c(C)c2)C1c1cccnc1 (stereo not drawn) [Compound S4],inhibition at 40 µM,Hsp90 [1]; [3],48.2%
same,Hsp90 inhibition activity (in words),Hsp90 [1]; [4],moderate
CN(C)S(=O)(=O)N1CCN(CC(O)COc2ccc3cc(Br)ccc3c2)CC1 (stereo not drawn) [Compound S1],inhibition at 40 µM,Hsp90 [1]; [3],> 50%
same,IC50,Hsp90 [1],2.44 ± 0.33 µM
same,IC50,Hsp90 [2],1.61 µM
same,IC50,Hsp70,28.2 ± 2.27 µM
same,selectivity HSP90 over HSP70,Hsp70,over 15 times
same,IC50,"MCF-7; Homo sapiens, MCF7, 48 h",3.79 µM
same,IC50,"SK-BR-3; Homo sapiens, SK-BR-3, 48 h",15.8 µM
same,IC50,"HepG2; Homo sapiens, HepG2, 48 h",2.27 µM
same,IC50,"HCT116; Homo sapiens, HCT-116, 48 h",4.66 µM
same,IC50,"MDA-MB-231; Homo sapiens, MDA-MB-231, 48 h",2.27 µM
same,IC50,"A549; Homo sapiens, A549, 48 h",25.9 µM
Cc1cccc(OCCn2c(SCC(O)CO)nc3ccccc32)c1 (stereo not drawn) [Compound S15],inhibition at 40 µM,Hsp90 [1]; [3],18.9%
CCCCCOc1cccc(C2C(C(=O)c3cccs3)=C(O)C(=O)N2CCN2CCOCC2)c1 (stereo not drawn) [Compound S6],inhibition at 40 µM,Hsp90 [1]; [3],-7.53%
Cc1ccc(S(=O)(=O)N2CCN(CC(O)COc3ccc(-c4ccccc4)cc3)CC2)cc1C (stereo not drawn) [Compound S14],inhibition at 40 µM,Hsp90 [1]; [3],47.5%
same,Hsp90 inhibition activity (in words),Hsp90 [1]; [4],moderate
COc1cccc(CNc2nc(SC)ncc2CO)c1 [Compound S16],inhibition at 40 µM,Hsp90 [1]; [3],-6.22%
CCOC(=O)c1c(C)n(CCOc2cccc3ccccc23)c2ccc(O)cc12 [Compound S2],inhibition at 40 µM,Hsp90 [1],-10.2%
CC(C)c1cc(C(=O)N2Cc3ccc(CN4CCN(C)CC4)cc3C2)c(O)cc1O [AT13387],IC50,Hsp90 [1],0.37 ± 0.05 µM
same,IC50,Hsp90 [2],0.34 ± 0.08 µM
same,IC50,Hsp70,16.3 ± 1.2 µM
same,selectivity HSP90 over HSP70,Hsp70,over 47 times
COCCN1C(=O)C(O)=C(C(=O)c2ccc3c(c2)CC(C)O3)C1c1cccc(OC)c1 (stereo not drawn) [Compound S17],inhibition at 40 µM,Hsp90 [1]; [3],48.8%
same,Hsp90 inhibition activity (in words),Hsp90 [1]; [4],moderate
CCOc1ccc(-c2csc3ncn(CC(=O)Nc4cc(C)ccc4C)c(=O)c23)cc1 [Compound S10],inhibition at 40 µM,Hsp90 [1]; [3],36%
